Measurements reported in US20160121003A1, “METHODS FOR DIAGNOSING AND […] OF LEWY BODY DEMENTIA BY ASSESSING DOPAMINE T[…]” (Alseres Pharmaceuticals, Inc., priority 2007, published 2016).

Legend:
[1] = target: T1, dopamine transporter (Macaca fascicularis, UniProt Q9GJT6); conditions: monkeys, in vivo and in vitro; density within range reported for the dopamine transporter; cited from earlier work
T1 construct: host or cells: monkey striatum

[2] = target: T2, dopamine transporter (Homo sapiens, UniProt Q01959); conditions: in vitro; cited from earlier work
T2 sequence (Q01959 whole entry): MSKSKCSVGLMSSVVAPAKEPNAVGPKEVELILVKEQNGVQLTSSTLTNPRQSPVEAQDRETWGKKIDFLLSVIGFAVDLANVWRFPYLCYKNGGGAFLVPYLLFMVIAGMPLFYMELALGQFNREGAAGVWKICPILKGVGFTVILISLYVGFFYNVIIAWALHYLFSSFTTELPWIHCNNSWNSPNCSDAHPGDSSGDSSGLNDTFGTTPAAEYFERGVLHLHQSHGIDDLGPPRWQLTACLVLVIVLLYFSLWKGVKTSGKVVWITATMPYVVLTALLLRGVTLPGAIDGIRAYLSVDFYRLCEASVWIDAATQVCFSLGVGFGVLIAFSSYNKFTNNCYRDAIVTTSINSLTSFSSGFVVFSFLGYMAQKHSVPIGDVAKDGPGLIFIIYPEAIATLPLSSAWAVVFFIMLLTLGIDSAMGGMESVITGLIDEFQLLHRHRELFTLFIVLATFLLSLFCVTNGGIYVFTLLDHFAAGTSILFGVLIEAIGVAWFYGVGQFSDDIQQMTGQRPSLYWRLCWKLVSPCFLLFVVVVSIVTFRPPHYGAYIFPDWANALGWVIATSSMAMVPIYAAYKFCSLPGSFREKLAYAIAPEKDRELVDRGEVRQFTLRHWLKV

[3] = target: T2, dopamine transporter; experiment: Dynamic SPECT time-activity study in Lewy Body Dementia and control subjects; assay type: in vivo; parameters: from tissue; host or cells: human brain striatum in vivo (Lewy Body Dementia subjects and controls)
Excerpt: The following example summarizes single photon emission computed tomographic (SPECT) image acquisition, analysis methods for Lewy Body Dementia research participants and healthy controls participating in an ^123I-altropane SPECT imaging study. The experiment is an open label study evaluating time-activity curves and striatal dopamine transporter occupancy over the first hour post bolus injection of ^123I-altropane using temporally well-resolved dynamic SPECT in Lewy Body Dementia subjects and similarly aged healthy control subjects. In addition, for the Lewy Body Dementia subjects, a second injection and scan is performed on each subject on a separate test day to evaluate the test/retest reproducibility data for both visual and quantitative analyses.
Fifteen idiopathic Lewy Body Dementia subjects are recruited through local advertising and word-of-mouth for enrollment in the study. All fifteen subjects complete two separate injection and SPECT scan sessions with approximately […] (8 mCi) of ^123I-altropane. Subjects undergo assessment by a neurology specialist.
Twelve healthy controls subjects are recruited for participation in a single scan session with ^123I-altropane using the identical SPECT image acquisition protocol as the Lewy Body Dementia subjects. Healthy subjects are evaluated by a neurology specialist to confirm the absence of neurologic illness.
SPECT scans are acquired for 60 min following the intravenous injection with […] (8.0 mCi) of ^123I altropane. A series of dynamic SPECT scans are obtained as five scans at 6 minutes per acquisition followed by three scans at 10 minutes per acquisition. The subject remains in the camera for the duration of the acquisition. Each SPECT study is acquired on a Philips PRISM 3000XP triple-headed SPECT camera (Cleveland, Ohio, USA) fitted with fan-beam collimators. Each head rotates 360 degrees, sampling every 3 degrees for a total of 120 raw projection images per head. Projection data are collected in a 128×128 matrix within a symmetric energy window centered at 159 kEv (+/−10%).
Data are re-constructed using filtered back projection and a simple ramp filter followed by a post hoc (3-D) standardized low pass filter. Attenuation correction is performed applying a Chang 0 correction and a mu of 0.11 cm^−1 using a standard or custom software. Regions of interest (ROIs) are placed in the 3-head data scans with individual ROI sampling of the left and right caudate and putamen and an occipital background region. […] The mean striatal SBR scores are calculated as the mean of the left and right caudate and putamen SBR scores. […]
The time-activity data for mean striatal count densities and occipital background for each of the 8 images acquired in the 60 minutes post injection sampling period are plotted to permit visual interrogation of the uptake and washout characteristics of ^123I-altropane in Lew Body Dementia and controls. […] The peak SBR is assessed for each subject for data acquired using 1, 2, and all 3 heads of imaging data. […]

[4] = target: T2, dopamine transporter; conditions: cited from earlier work
[5] = target: T2, dopamine transporter; experiment: SPECT imaging of striatal binding potential, Lewy Body Dementia subjects versus controls; assay type: in vivo; parameters: from tissue; host or cells: human brain striatum in vivo (Lewy Body Dementia subjects and controls)
[6] = Safety and tolerability of imaging agent in patients; assay type: in vivo, human

T1 sequence (Q9GJT6 whole entry): as the sequence (Q01959 whole entry) above, with V24M, I137V, P194S, S198G, D200N, S201G, S202P counted along it

Structure (SMILES)	regional binding in brain [1]	binding site on the dopamine transporter [2]	elimination from the brain ([3]; most subjects)	selectivity for dopamine transporter compared to serotonin transporter [4]	test-retest reproducibility of total striatal binding ([3]; 15 LBD subjects, about 30 minutes commencing 15 minutes after injection)	time post injection by which washout rates from striatum and occipital background are similar (stable striatal binding ratio) ([3]; bolus injection) [min]	time of peak striatal count densities post injection ([3]; bolus injection, controls and Lewy Body Dementia subjects) [min]	time of peak SBR post injection ([3]; one and two imaging head reconstructions) [min]	striatal binding potential versus expected levels for age matched normal individuals ([5]; Example 1, six Lewy Body Dementia subjects, i.v., SPECT)	uptake in striatum, Lewy Body Dementia subjects versus control adults ([5]; Example 3)	binding potential, Lewy Body Dementia group versus control group ([5]; Example 3, 8 LBD and 16 control adults, one-tailed t-test)	safety and tolerability [6]
COC(=O)C1C(c2ccc(F)cc2)CC2CCC1N2C/C=C/I (stereo not drawn) [Altropane, 2β-carbomethoxy-3β-(4′-flurophenyl)-N-(3-iodo-E-allyl) nortropane]	preferentially binds to dopamine rich areas of the striatum	binds to a specific high-affinity site	rapidly eliminate	high selectivity								
COC(=O)[C@H]1[C@@H](c2ccc(F)cc2)C[C@@H]2CC[C@H]1N2C/C=C/[123I] [^123I-Altropane, E-2β-carbomethoxy-3β-(4-fluorophenyl)-N-1(1-iodoprop-1-en-3) nortropane]					demonstrates reproducibility	20 to 30	10	≥ 15	reduced binding potential	lower	significantly lesser binding potential	safe and well tolerated
